Laboratory results reported in patent US20250360108A1, “CATALYTIC INHIBITOR OF PROTEIN PHOSPHATASE 5 ACTIVATES THE EXTRINSIC APOPTOTIC PATHWAY BY DISRUPTING COMPLEX II” (The Research Foundation for the State University of New York, priority 2022, published 2025).
Residues, ends and D or L forms follow the SMILES beside them. *: point of attachment. Cbz = O=C(OCc1ccccc1)*; CH2F = FC*

What was measured:
[1] = tested on: 786-O cells; assay: Induction of apoptosis by immunoblotting of apoptotic markers; assay type: cell-based, human; conditions: for induction of apoptosis (cleaved PARP, cleaved caspase 8) / cleavage of apoptotic markers caspase 3 and 8 and PARP: 10 μM, 24 hrs
Protocol: Method Details Cell Transfection and Treatment: Cultured cells were split and then transfected the following day when about 40% confluent with each construct using Mirus TranslT-2020 (MirusBio) according to manufacturer's protocol. Cells were incubated at 37° C. and then extracted or collected for analysis after 24 hrs (HEK293) or 72 hrs (ccRCC cell lines). Short interfering RNA (siRNA) scramble control and PPP5C (PP5) targeting duplexes were purchased from OriGene (SKU: SR321403A, SR321403B, and SR321403C). Indicated cells were transiently transfected with the siRNA using Mirus TranslT-2020. For PP5 knock-down, either 30 nM of control siRNA or 10 nM of each PP5 siRNA duplex (A, B and C) were mixed prior to transfection. Cells were incubated at 37° C. for 72 hrs, then harvested for protein extraction. […] Cells were then harvested for protein extraction.
(§1) Protein Extraction, Immunoprecipitation and Immunoblotting: Protein extraction from mammalian cells was carried out using methods previously described. Cell lysates were quantified using 1× Bradford reagent (Biorad). For immunoprecipitation, cell lysates were incubated with anti-FLAG antibody conjugated beads (Sigma) or anti-HA conjugated beads (ThermoFisher Scientific) at 4° C. for 2 hrs. Endogenous IPs were achieved by incubating lysate with anti-PP5 antibody (Cell Signaling), anti-FADD antibody (Cell Signaling), or anti-RIPK1 antibody (Cell Signaling) overnight followed by protein G agarose (Invitrogen) at 4° C. for 2 hrs. Immunopellets were washed 4 times with fresh lysis buffer (20 mM Tris-HCl (pH 7.4), 100 mM NaCl, 1 mM MgCl2, 0.1% NP40, protease inhibitor cocktail (Roche), and PhosSTOP (Roche)) and eluted in 5× Laemmli buffer. Precipitated proteins were separated by SDS-PAGE and transferred to nitrocellulose membranes. Co-immunoprecipitated proteins or proteins from cell lysate were detected with antibodies recognizing FLAG, 6×-His (ThermoFisher Scientific), GAPDH (ENZO Life Sciences), Cdc37 (StressMarq), GR, phospho-GR (S211), PP5, caspase-3, cleaved caspase-3, caspase-8, cleaved caspase-8, cleaved caspase-7, cleaved-PARP, phospho-RIPK1 (S166), phospho-FADD (S194), PP2A-C, VHL (Cell Signaling), phospho-RIPK1 (S161) (Invitrogen), PP5 and phospho-Cdc37 (S13) (Abcam). Secondary antibodies raised against mouse and rabbit (Cell Signaling) were used (See Key Resources Table).

[2] = target: T1, PP5-FLAG (Homo sapiens, UniProt P53041); assay: Biotin-P5 and biotin-P13 pulldown from HEK293 lysate; assay type: binding; conditions: for binding of PP5-FLAG to biotinylated compound (streptavidin pulldown): 0.01-10 μM
T1 construct: expressed in transfected cells; host or cells: HEK293
T1 sequence (P53041 1-499): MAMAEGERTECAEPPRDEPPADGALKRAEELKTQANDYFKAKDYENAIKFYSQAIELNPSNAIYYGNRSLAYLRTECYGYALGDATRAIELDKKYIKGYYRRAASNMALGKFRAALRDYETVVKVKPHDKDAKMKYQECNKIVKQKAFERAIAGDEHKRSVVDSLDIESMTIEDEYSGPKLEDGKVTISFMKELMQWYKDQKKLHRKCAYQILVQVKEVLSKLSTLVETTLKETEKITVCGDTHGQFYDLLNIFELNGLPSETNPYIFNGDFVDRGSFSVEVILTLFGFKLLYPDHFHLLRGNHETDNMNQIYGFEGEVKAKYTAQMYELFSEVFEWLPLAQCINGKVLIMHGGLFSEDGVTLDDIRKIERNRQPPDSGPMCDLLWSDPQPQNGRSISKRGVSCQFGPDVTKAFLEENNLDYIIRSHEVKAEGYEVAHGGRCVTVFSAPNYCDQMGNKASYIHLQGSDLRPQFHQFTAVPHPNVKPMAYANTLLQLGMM
Protocol: (§2) Biotin-P5 and biotin-P13 Pulldown: HEK293 cells were transiently transfected with PP5-FLAG or active site point mutants and protein lysate extracted. Lysate was incubated with 0.01-10 μM biotin-P5 or biotin P-13 as indicated at 4° C. for 1 hr then added to streptavidin-conjugated agarose and incubated at 4° C. for 1 hr. Following three washes with fresh extraction buffer bound proteins were eluted in 5× Laemmli buffer and analyzed by Western blot. […] Samples were run by SDS PAGE, transferred to nitrocellulose membrane, and analyzed by Western blot.

[3] = tested on: PP2A; assay: Biotin-P5 / biotin-P13 pulldown in 786-O lysate, co-pulldown of PP2A; assay type: binding, human; conditions: cell lysate, 1 μM
[4] = tested on: PP5; assay: PP5 inhibition in cells by immunoblotting of PP5 substrates phospho-S211-GR and phospho-S13-Cdc37; assay type: cell-based, human; conditions: 786-O cells, indicated amounts, 24 hrs
Protocol: as §1, with “Secondary antibodies raised against mouse and rabbit (Cell Signaling) were used (See Key Resources Table).” left out

[5] = tested on: Hsp90; assay: Time course with Hsp90 inhibitor SNX-2112, protein levels by immunoblot; assay type: cell-based, human; conditions: HEK293 cells, 2 μM
Protocol: Since a vast majority of PP5 substrates are also clients of the molecular chaperone Hsp90, we asked whether RIPK1 and FADD are clients of this chaperone. We therefore performed a time course assay using the Hsp90 inhibitor SNX-2112 (2 μM) in HEK293 cells. […] To further understand the relationship between FADD and Hsp90, we immunoprecipitated endogenous FADD from 786-O cells and examined the co-IP of Hsp90 (FIG. 4G).
as §1

[6] = target: T2, recombinant PP5-His6 (Homo sapiens, UniProt P53041); assay: PP5 Phosphatase Activity and Inhibition Assay (PiPer phosphate release, phospho-S211-GR peptide); assay type: biochemical; conditions: phospho-S211-GR peptide substrate; for Ki: IC50 converted to Ki
T2 construct: GST (N, cleaved yes); made in house
T2 sequence (P53041 1-499): T1 sequence (P53041 1-499)
Protocol: PP5 inhibitors specifically bind to the phosphatase-catalytic domain: We next sought to measure the inhibition of PP5 activity in vitro with P5 and P13.
Bacterial Expression and Protein Purification of PP5: Human PPP5c was cloned into pGEX6P1 with an N-terminal GST tag and C-terminal His6 tag. Transformed cells were grown at 37° C. in LB with 100 mg/L ampicillin until OD600=0.6 and induced with 1 mM IPTG. Cells were harvested by centrifugation and lysed by sonication in lysis buffer (50 mM Hepes (pH 8.0), 150 mM NaCl, 0.5 mM TCEP and EDTA-free protease inhibitor cocktail tablet (Roche)). Lysate was incubated with talon resin (Takara Bio) for 1 hr at 4° C. The resin was washed three times with lysis buffer and PP5 was eluted with lysis buffer containing 250 mM imidazole. Precision protease was added to the elution overnight to cleave the GST tag and the sample was then mixed with Glutathione Sepharose resin (Cytiva) to remove the free GST and un-cleaved protein. The sample was applied to a Superdex S75 16/60 size exclusion column (GE Healthcare) and eluted in 100 mM NaCl, 20 mM Hepes pH 8, 02 mM TCEP.
PP5 Phosphatase Activity and Inhibition Assay: The phosphatase activity of the recombinant PP5-His6 was measured using the PiPer™ Phosphate Assay Kit (Thermo Fisher Scientific) as described in the manufacturer's protocol. Standard curve with linear fit line was created from 0-1 nM Pifinal concentration reactions. 1 nM of PP5-His6 was added to each reaction with indicated amounts of custom synthesized substrate phospho-S211-glucocorticoid receptor (PhosS211-GR) peptide (see Key Resources Table) as specific substrate (Thermo Fisher Scientific). Reactions were run in triplicate and incubated at 37° C. for over 10 min. […] Enzyme kinetics were calculated and plotted using Lineweaver Burk plot and web-based tool (https://www.aatbio.com/tools/ic50-calculator) for calculating IC50 and (https://bioinfo-abcc.ncifcrf.gov/IC50_Ki_Converter/index.php) for converting IC50 to Ki values for inhibitors of enzyme activity and ligand binding.

[7] = target: T2, recombinant PP5-His6; assay: P13-BODIPY binding to PP5 by fluorescence anisotropy; conditions: measured with 10 nM BODIPY-labeled P13, one-site fit; read-out: binding affinity to PP5
Protocol: We next synthesized BODIPY-labelled version of compound P13 (P13-BODIPY) in order to obtain the binding affinity of this inhibitor to PP5 in vitro (FIG. S3A). This was accomplished by coupling the azidopropyl-P13 10 with 4,4-difluoro-5,7-dimethyl-4-bora-3a,4a-diaza-s-indacene-3-propionic acid (BODIPY Acid 13). Using fluorescence anisotropy with recombinant PP5 protein (FIG. S3B), we determined the binding affinity of P13 compound to PP5 to be 376.2±60 nM (FIG. 1H).
Binding Measurements and Anisotropy: Recombinant PP5-His6 at the indicated concentrations was incubated on ice in 100 mM NaCl, 20 mM HEPES pH 8.0, 1% glycerol, 0.2 mM tris(2-carboxyethyl)phosphine (TCEP) and 0.5 mM MnCl2 with 10 nM BODIPY-labeled P13 in 2% DMSO for 30 min in opaque black 96 well plates (Corning). Uncalibrated fluorescence anisotropy was then measured using a SpectraMax i3 equipped with fluorescein anisotropy module (Molecular Devices). Curves were fit to a one-site binding equation using GraphPad Prism version 9.5.0. y=y0+A*x/(Kd+x) where y is measured uncalibrated anisotropy, y0 is the y intercept, A is the amplitude of the curve, x is the concentration of PP5 used, and Kd is the measured dissociation constant. Data are presented as mean±SEM.

[8] = tested on: 786-O cells; assay: Cell viability / proliferation MTT assay; assay type: cell-based, human; conditions: varying doses, 48 hrs
Protocol: Cell Viability Assay: Renal cancer cell lines 786-O, Caki-2, Caki-1, and A498 as well as the normal renal cell line HK-2 were plated at 10,000 cells per well in 96-well plates. […] After 24 or 48 hrs, cell viability assay was performed using the Quick Cell Proliferation Kit Plus (BioVision) according to the manufacturer's protocol. The absorbance at 450 nm was measured on a Tecan Infinite M200 Pro and proliferation rate was calculated.

[9] = target: T3, PP5-FLAG active site point mutants (Homo sapiens, UniProt P53041, R400A); assay: Biotin-P13 pulldown of PP5 active site point mutants; assay type: binding; conditions: HEK293 lysate
T3 construct: expressed in transfected cells; host or cells: HEK293
T3 sequence (P53041 2-499 R400A): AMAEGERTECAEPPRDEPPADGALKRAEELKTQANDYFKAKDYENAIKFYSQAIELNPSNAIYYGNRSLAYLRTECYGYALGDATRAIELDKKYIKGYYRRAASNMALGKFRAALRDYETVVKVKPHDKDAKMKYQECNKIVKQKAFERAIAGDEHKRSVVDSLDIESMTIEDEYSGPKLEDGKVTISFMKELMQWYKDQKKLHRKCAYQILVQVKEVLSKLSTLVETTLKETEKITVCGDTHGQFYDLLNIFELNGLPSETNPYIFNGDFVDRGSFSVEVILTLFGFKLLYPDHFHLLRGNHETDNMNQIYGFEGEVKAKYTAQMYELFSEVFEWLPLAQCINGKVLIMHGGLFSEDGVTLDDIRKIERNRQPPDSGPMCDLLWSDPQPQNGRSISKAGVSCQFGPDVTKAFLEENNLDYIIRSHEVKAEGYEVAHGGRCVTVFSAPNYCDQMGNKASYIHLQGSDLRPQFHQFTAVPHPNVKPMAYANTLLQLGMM
Protocol: (§3) We then mutated docking site residues in the active site of PP5 to obtain further insight into the mechanism of P13 binding to PP5. […] These mutants were transiently expressed in HEK293 cells, and then the protein lysates were challenged with different amounts of biotin-P13 (FIG. 1G).
as §2

[10] = tested on: PP5-FLAG active site point mutants; assay: as above; assay type: binding, human; conditions: HEK293 lysate
Protocol: as §3, §2

Cc1noc(C)c1S(=O)(=O)N(CCCC#N)c1ccc(Oc2ccccc2)cc1 [Compound P075, 4-[(3,5-Dimethyl-4-isoxazolylsulfonyl)(p-phenoxyphenyl)amino]butyronitrile]
induction of apoptosis (cleaved PARP, cleaved caspase 8) [1]: had the ability to induce apoptosis

Cc1noc(C)c1S(=O)(=O)Nc1cccc(C(=O)N2CCN(C(=O)CCC[C@@H]3SC[C@@H]4NC(=O)N[C@@H]43)CC2)c1 [biotin-P5, N-[3-(4-(4-[(3aS,4S,6aR)-2-Oxo-hexahydro-1H-thieno[3,4-d]imidazol-4-yl]butanoyl)piperazine-1-carbonyl)phenyl]-3,5-dimethyl-1,2-oxazole-4-sulfonamide]
binding of PP5-FLAG to biotinylated compound (streptavidin pulldown) [2]: binds
binding to PP2A [3]: did not bind

Cc1noc(C)c1S(=O)(=O)Nc1ccc(O)c(C(=O)O)c1 [Compound P0]
phosphorylation of PP5 substrates phospho-S13-Cdc37 and phospho-S211-GR [4]: dose dependent increase in phosphorylation

Cc1noc(C)c1S(=O)(=O)N(CCCCl)c1ccc(Oc2ccccc2)cc1 [Compound P059, (3-Chloropropyl)(3,5-dimethyl-4-isoxazolylsulfonyl)(p-phenoxyphenyl)amine]
induction of apoptosis (cleaved PARP, cleaved caspase 8) [1]: had the ability to induce apoptosis

CC1(C)CC(=O)c2c(C(F)(F)F)nn(-c3ccc(C(N)=O)c(N[C@H]4CC[C@H](O)CC4)c3)c2C1 [SNX-2112]
RIPK1 protein levels ([5]; 16 hr): decreased RIPK1 protein levels
FADD protein levels ([5]; throughout time course): did not observe a decrease in FADD levels
Hsp90 clients Tsc2, Akt and phos-Ser473-Akt protein levels ([5]; time course): destabilized and degraded

CCCCN(c1ccc(Oc2ccccc2)cc1)S(=O)(=O)c1c(C)noc1C [Compound P058, N-Butyl(3,5-dimethyl-4-isoxazolylsulfonyl)(p-phenoxyphenyl)amine]
induction of apoptosis (cleaved PARP, cleaved caspase 8) [1]: had the ability to induce apoptosis

Cc1ccc(NS(=O)(=O)c2c(C)noc2C)cc1C [Compound P13, (3,5-Dimethyl-4-isoxazolylsulfonyl)(3,4-xylyl)amine]
mode of PP5 inhibition (enzyme kinetics, Lineweaver-Burk) [6]: competitive inhibitors
Ki [6]: 0.234 ± 0.05 µM
Kd [7]: 0.376 ± 0.06 µM
proliferation of 786-O cells (MTT) [8]: significantly inhibited the proliferation
cleavage of apoptotic markers caspase 3 and 8 and PARP [1]: cleavage of the apoptotic markers caspase 3 and 8 and PARP

COC(=O)C[C@H](NC(=O)[C@H](C)NC(=O)[C@@H](NC(=O)OCc1ccccc1)C(C)C)C(=O)CF [z-VAD-fmk, reference compound] (Cbz-Val-Ala-Asp(OMe)-CH2F)
effect on IC261-induced apoptosis ([1]; 10 μM for 1 hr, then IC261 for 16 hrs): reversed this effect

Cc1ccc(N(CCCNC(=O)CCC[C@@H]2SC[C@@H]3NC(=O)N[C@@H]32)S(=O)(=O)c2c(C)noc2C)cc1C [biotin-P13, 4-[(3aS,4S,6aR)-2-Oxo-hexahydro-1H-thieno[3,4-d]imidazol-4-yl]-N-(3-[N-(3,4-dimethylphenyl)3,5-dimethyl-1,2-oxazole-4-sulfonamido]propyl}butanamide]
binding to PP5-FLAG compared to biotin-P5 ([2]; 10 μM): bound more
binding of PP5-FLAG to biotinylated compound (streptavidin pulldown) [2]: binds
binding of R400A PP5 mutant compared to wild-type PP5 [9]: reduced binding
binding of H304Q, M309C and W386F PP5 mutants [10]: unable to bind
binding of R275A and Y451F PP5 mutants compared to wild-type PP5 [10]: increased binding
binding to PP2A [3]: did not bind

COC(=O)c1cccc(NS(=O)(=O)c2c(C)noc2C)c1 [Compound P5, Methyl m-(3,5-dimethyl-4-isoxazolylsulfonylamino)benzoate]
mode of PP5 inhibition (enzyme kinetics, Lineweaver-Burk) [6]: competitive inhibitors
Ki [6]: 0.277 ± 0.05 µM
proliferation of 786-O cells (MTT) [8]: significantly inhibited the proliferation
cleavage of apoptotic markers caspase 3 and 8 and PARP [1]: cleavage of the apoptotic markers caspase 3 and 8 and PARP
